Test results: patent US6727253B2, “Treatment of accidental extravasation of anthracyclines” (Antianthra APS, priority 1999, dated 2004)
Where two headings read alike, the source gives them in different places.

Columns and labels:
[1] = tested on: wound after doxorubicin SC in swine; test: Pilot study on swine, doxorubicin SC; type: in vivo; conditions: 3 mg doxorubicin SC, not receiving ICRF-187
Protocol: (§1) A danish porker weighting approximately 30 kg was used. The animals were fully anesthesized and artificially ventilated during SC injection of 1 ml of anthracycline.

[2] = tested on: wound after daunorubicin SC in swine; test: Pilot study on swine, daunorubicin SC; type: in vivo; conditions: 1 ml daunorubicin SC, untreated
Protocol: as §1

[3] = tested on: SC daunorubicin induced wounds in mice; conditions: for AUC / DW / FW / TTW: Table A, pooled data
Protocol: The mice were euthanized after healing of all wounds.
The effect of various doses of ICRF-187 was investigated in Example 3.
Comparison of two concentrations of sc daunorubicin were compared with and without simultaneous treatment with ICRF-187 250 mg/kg.
ICRF-187 was administered at the same time as daunorubicin, 3 hours after, and 6 hours after, respectively. Saline served as control. The dose of daunorubicin was 3 mg/kg so and ICRF-187 was administered IP in a 250 mg/kg solution. Twenty-eight mice were used. The results are depicted in data sheet #6 and the mean AUCs are shown graphically in FIG. 5.
100 mg/kg ICRF-187 was injected into the subcutaneous papule produced by injected daunorubicin. This treatment was compared to intralesional saline control, IP saline control, and IP treatment with ICRF-187.
[…]. Seven experiments (n=6, 7, 7, 9, 9, 9, and 9) with 3 mg/kg daunorubicin SC plus saline IP at t=0 and seven experiments (n=6, 7, 7, 9, 9, 8, and 9) with 3 mg/kg daunorubicin SC plus 250 mg/kg ICRF-187 IP at t=0tin two experiments (n=9 and 4) the ICRF-187 doses were 62,5 mg/kg and 375 mg/kg IP, respectively, in two (n=7 and 9) the dose was 125 mg/kg. ICRF-187 250 mg/kg was administered IV in one (n=9).

[4] = Example 3, daunorubicin 3 mg/kg sc + saline IP
[5] = Example 4, daunorubicin 1 mg/kg sc + saline IP
[6] = Example 4, daunorubicin 3 mg/kg sc + saline IP
[7] = Example 5, daunorubicin 1 mg/kg sc + saline IP
[8] = Example 5, daunorubicin 3 mg/kg sc + saline IP
[9] = Example 6, daunorubicin 3 mg/kg sc + saline IP
[10] = Example 7, daunorubicin 3 mg/kg sc + 0.05 ml saline IL
[11] = Example 7, daunorubicin 3 mg/kg sc + saline IP
[12] = daunorubicin 1 mg/kg SC + saline IP
[13] = daunorubicin 3 mg/kg SC + saline IP
[14] = daunorubicin 3 mg/kg SC + saline IP, listed as daunorubicin

COc1cccc2c1C(=O)c1c(O)c3c(c(O)c1C2=O)C[C@@](O)(C(=O)CO)C[C@@H]3O[C@H]1C[C@H](N)[C@H](O)[C@H](C)O1 [Doxorubicin]
wound appearance [1]: a wound appeared

COc1cccc2c1C(=O)c1c(O)c3c(c(O)c1C2=O)C[C@@](O)(C(C)=O)C[C@@H]3O[C@H]1C[C@H](N)[C@H](O)[C@H](C)O1 [Daunorubicin]
wound appearance [2]: a large wound appeared
Mean AUC [3, 4]: 764 mm^2 × days
Mean DWw ± SEM [3, 4]: 29.8 ± 0.5 days
Mean TTWw ± SEM [3, 4]: 4.8 ± 0.4 days
Mean AUC [3, 5]: 365 mm^2 × days
Mean DWw ± SEM [3, 5]: 25.5 ± 1.1 days
Mean TTWw ± SEM [3, 5]: 7.3 ± 1.6 days
Mean AUC [3, 6]: 1240 mm^2 × days
Mean DWw ± SEM [3, 6]: 29.0 ± 0.9 days
Mean TTWw ± SEM [3, 6]: 4.8 ± 0.3 days
Mean AUC [3, 7]: 184 mm^2 × days
Mean DWw ± SEM [3, 7]: 20.5 ± 1.3 days
Mean TTWw ± SEM [3, 7]: 8.5 ± 0.7 days
Mean AUC [3, 8]: 955 mm^2 × days
Mean DWw ± SEM [3, 8]: 25.7 ± 0.7 days
Mean TTWw ± SEM [3, 8]: 5.1 ± 0.2 days
Mean AUC [3, 9]: 1398 mm^2 × days
Mean DWw ± SEM [3, 9]: 27.4 ± 0.5 days
Mean TTWw ± SEM [3, 9]: 5.0 ± 0.4 days
Mean AUC [3, 10]: 1290 mm^2 × days
Mean DWw ± SEM [3, 10]: 24.4 ± 0.6 days
Mean TTWw ± SEM [3, 10]: 6.2 ± 0.3 days
Mean AUC [3, 11]: 1144 mm^2 × days
Mean DWw ± SEM [3, 11]: 26.9 ± 0.7 days
Mean TTWw ± SEM [3, 11]: 6.0 ± 0.3 days
AUC [3, 12]: 263 (± 56) mm^2×days
DW [3, 12]: 22.6 (± 1.1) days
FW [3, 12]: 88%
TTW [3, 12]: 6.9 (± 0.7) days
AUC [3, 13]: 1260 (± 72) mm^2×days
DW [3, 13]: 26.6 (± 0.3) days
FW [3, 13]: 96%
TTW [3, 13]: 5.5 (± 0.2) days
DW [3, 14]: 26.6 days
TTW [3, 14]: 5.5 days
